The values below come from ChEMBL document CHEMBL4385605, “Synthesis and Structure-Affinity Relationships of Spirocyclic Benzopyrans with Exocyclic Amino Moiety” (J Med Chem, 2019).

The inhibition is the change of the read-out against control, counted positive when it falls. For orientation: Ki means a dissociation constant, usually derived from enzyme kinetics or from competition with a known ligand.

Series [1] deals with T1, Alpha-1A adrenergic receptor (Homo sapiens) (UniProt P35348).
T1 sequence (whole entry): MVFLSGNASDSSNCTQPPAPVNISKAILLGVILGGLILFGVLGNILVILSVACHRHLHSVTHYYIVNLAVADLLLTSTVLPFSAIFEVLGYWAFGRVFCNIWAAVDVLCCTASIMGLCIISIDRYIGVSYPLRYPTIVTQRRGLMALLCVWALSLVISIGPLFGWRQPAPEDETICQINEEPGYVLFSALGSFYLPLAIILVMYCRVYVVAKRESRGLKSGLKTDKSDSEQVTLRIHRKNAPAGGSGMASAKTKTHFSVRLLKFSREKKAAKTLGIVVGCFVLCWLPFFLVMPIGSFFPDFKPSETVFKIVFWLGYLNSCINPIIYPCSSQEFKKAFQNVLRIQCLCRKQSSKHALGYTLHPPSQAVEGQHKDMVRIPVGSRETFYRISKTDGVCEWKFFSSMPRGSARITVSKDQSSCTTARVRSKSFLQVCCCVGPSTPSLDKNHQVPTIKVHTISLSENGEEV
In words: Binding affinity to alpha 1a adrenergic receptor (unknown origin) at 1 uM relative to control.

Series [2] addresses Sodium-dependent serotonin transporter (Homo sapiens) (UniProt P31645). In words: Binding affinity to serotonin transporter (unknown origin) at 1 uM.
Series [3] addresses CYP2D6 (Homo sapiens, UniProt P10635). In words: Inhibition of recombinant human CYP2D6 at 1 uM by fluorescence assay relative to control. Format: ADME.
Series [4] in a line: Metabolic stability in human liver microsomes assessed as parent compound remaining at 1 uM in the presence of NADPH regenerating system after 60 mins by UPLC/MS analysis. Format: ADME, Microsome. The note with it: read-out: Stability.
In series [5] the test system is HepG2. In words: Cytotoxicity against human HepG2 cells at 1 to 100 uM incubated for 20 hrs under serum free condition by MTT assay. It is filed as cell-based. The note with it: hepg2, 20 h.
The target in series [6] is Sigma non-opioid intracellular receptor 1 (Homo sapiens, UniProt Q99720). In words: Displacement of [3H](+)-pentazocine from sigma 1 receptor in human RPMI8226 cell membranes incubated for 2 hrs under shaking by scintillation counting analysis.
Series [7] addresses Kappa-type opioid receptor (Cavia porcellus, UniProt P41144). In words: Displacement of [3H]U69,593 from kappa opioid receptor in guinea pig brain membrane after 120 mins by scintillation counting analysis. Format: cell membranes. (In general: Loss of bound radioactivity is the signal in a displacement assay; it reports binding, not function.)
Series [8] deals with Mu-type opioid receptor (Cavia porcellus, UniProt P97266). The series can be described thus: Displacement of [3H]DAMGO from mu opioid receptor in guinea pig brain membranes after 120 mins by scintillation counting analysis. Format: cell membranes.
For series [9], the target named is T2, Cytochrome P450 1A2 (Homo sapiens, UniProt P05177).
T2 sequence (P05177 whole entry): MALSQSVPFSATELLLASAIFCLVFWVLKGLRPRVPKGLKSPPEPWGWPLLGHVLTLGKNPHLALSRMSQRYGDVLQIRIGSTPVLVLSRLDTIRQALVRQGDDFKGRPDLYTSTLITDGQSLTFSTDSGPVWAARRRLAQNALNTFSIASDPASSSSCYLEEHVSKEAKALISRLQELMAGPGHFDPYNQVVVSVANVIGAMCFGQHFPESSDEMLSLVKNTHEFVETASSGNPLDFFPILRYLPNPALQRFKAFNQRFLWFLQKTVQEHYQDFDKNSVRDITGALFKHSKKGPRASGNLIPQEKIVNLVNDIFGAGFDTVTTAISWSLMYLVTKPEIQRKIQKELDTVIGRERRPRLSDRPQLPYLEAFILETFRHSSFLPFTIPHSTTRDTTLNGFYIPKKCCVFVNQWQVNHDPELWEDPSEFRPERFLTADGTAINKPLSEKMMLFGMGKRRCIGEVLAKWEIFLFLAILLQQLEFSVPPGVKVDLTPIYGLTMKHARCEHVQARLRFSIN
The series can be described thus: Inhibition of recombinant human CYP1A2 at 1 uM by fluorescence assay. It is filed as ADME. The settings on record: recombinant enzyme.

The target of series [10] is T3, Sigma intracellular receptor 2 (Rattus norvegicus, UniProt Q5U3Y7).
T3 sequence (Q5U3Y7 whole entry): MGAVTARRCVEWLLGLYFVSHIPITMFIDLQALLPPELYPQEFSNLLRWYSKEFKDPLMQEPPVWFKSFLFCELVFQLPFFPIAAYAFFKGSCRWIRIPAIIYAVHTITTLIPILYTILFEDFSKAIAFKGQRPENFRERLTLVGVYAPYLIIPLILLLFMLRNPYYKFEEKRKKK
The series can be described thus: Displacement of [3H]-di-o-tolylguanidine from sigma2 receptor in rat liver membranes incubated for 120 mins in the presence of sigma1 receptor ligand (+)-pentazocine by scintillation counting method. It is filed as cell membranes.

In series [11] the target is Sodium-dependent noradrenaline transporter (Homo sapiens) (UniProt P23975). In words: Binding affinity to noradrenaline transporter (unknown origin) at 1 uM.
For series [12], the target named is Sodium-dependent dopamine transporter (Homo sapiens) (UniProt Q01959). In words: Binding affinity to dopamine transporter (unknown origin) at 1 uM.
Series [13] can be described thus: Selectivity ratio of Ki for displacement of [3H]DTG from sigma2 receptor in rat liver membranes to Ki for displacement of (+)-[3H]pentazocine from sigma 1 receptor in guinea pig brain cortex membranes. It is filed as cell membranes.
The target of series [14] is Cytochrome P450 2C19 (Homo sapiens, UniProt P33261). In words: Inhibition of recombinant human CYP2C19 at 1 uM by fluorescence assay. It is filed as ADME. The note with it: recombinant enzyme.
Series [15] deals with Sigma non-opioid intracellular receptor 1 (Cavia porcellus, UniProt Q60492). The series can be described thus: Displacement of [3H](+)-pentazocine from sigma 1 receptor in guinea pig brain cortex membranes after 120 mins by scintillation counting analysis. Format: cell membranes.
In series [16] the target is 5-hydroxytryptamine receptor 2B (Homo sapiens) (UniProt P41595). In words: Binding affinity to 5-HT2BR (unknown origin) at 1 uM relative to control.
The target in series [17] is T4, 5-hydroxytryptamine receptor 1A (Homo sapiens) (UniProt P08908).
T4 sequence (whole entry): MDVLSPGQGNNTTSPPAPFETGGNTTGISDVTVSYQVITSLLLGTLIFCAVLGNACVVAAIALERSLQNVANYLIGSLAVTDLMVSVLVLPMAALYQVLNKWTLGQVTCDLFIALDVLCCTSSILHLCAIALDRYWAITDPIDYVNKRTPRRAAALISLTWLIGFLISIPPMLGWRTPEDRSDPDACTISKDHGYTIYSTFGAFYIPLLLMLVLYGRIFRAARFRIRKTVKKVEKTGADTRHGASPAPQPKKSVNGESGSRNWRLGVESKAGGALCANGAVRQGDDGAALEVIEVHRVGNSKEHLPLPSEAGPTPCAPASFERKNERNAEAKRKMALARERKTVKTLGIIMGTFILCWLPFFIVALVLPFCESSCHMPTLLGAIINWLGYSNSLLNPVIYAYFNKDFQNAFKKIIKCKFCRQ
In words: Binding affinity to 5-HT1AR (unknown origin) at 1 uM relative to control.

Series [18] has as its system HepG2. In words: Cytotoxicity against human HepG2 cells at 1 to 100 uM incubated for 20 hrs under serum free condition by neutral red uptake assay. Format: cell-based. The settings on record: hepg2, 20 h.
For series [19], the target named is Cytochrome P450 3A4 (Homo sapiens, UniProt P08684). In words: Inhibition of recombinant human CYP3A4 at 1 uM by fluorescence assay. Format: ADME. The settings on record: recombinant enzyme.
Series [20] has as its target Cytochrome P450 2C9 (Homo sapiens, UniProt P11712). In words: Inhibition of recombinant human CYP2C9 at 1 uM by fluorescence assay. It is filed as ADME. The note with it: recombinant enzyme.
The species named for series [21] is Sus scrofa. The series can be described thus: Displacement of [3H]-(+)-MK-801 from PCP binding site of NMDA receptor in pig brain cortex membranes up to 1 uM after 120 mins by scintillation counting analysis. Format: cell membranes.
The target of series [22] is Delta-type opioid receptor (Rattus norvegicus, UniProt P33533). In words: Displacement of [3H]DPDPE from delta opioid receptor in rat membranes after 120 mins by scintillation counting analysis. It is filed as cell membranes.
The target in series [23] is T5, Alpha-2A adrenergic receptor (Homo sapiens) (UniProt P08913).
T5 sequence (whole entry): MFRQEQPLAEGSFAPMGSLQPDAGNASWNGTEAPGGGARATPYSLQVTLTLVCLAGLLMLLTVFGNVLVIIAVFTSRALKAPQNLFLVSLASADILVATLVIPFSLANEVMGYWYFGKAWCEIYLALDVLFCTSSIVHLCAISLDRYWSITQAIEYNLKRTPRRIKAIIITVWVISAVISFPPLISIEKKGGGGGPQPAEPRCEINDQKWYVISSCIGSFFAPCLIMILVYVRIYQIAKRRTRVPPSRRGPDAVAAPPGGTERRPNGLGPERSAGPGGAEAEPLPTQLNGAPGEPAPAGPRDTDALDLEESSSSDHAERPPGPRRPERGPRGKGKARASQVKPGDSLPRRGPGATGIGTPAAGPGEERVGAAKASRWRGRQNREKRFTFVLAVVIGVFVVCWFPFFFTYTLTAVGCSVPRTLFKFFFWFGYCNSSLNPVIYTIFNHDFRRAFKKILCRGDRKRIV
The series can be described thus: Binding affinity to alpha 2a adrenergic receptor (unknown origin) at 1 uM relative to control.

The target in series [24] is Sigma intracellular receptor 2 (Rattus norvegicus) (UniProt Q5U3Y7). In words: Displacement of [3H]-di-o-tolylguanidine from sigma2 receptor in rat liver membranes at 1 uM incubated for 120 mins in the presence of sigma1 receptor ligand (+)-pentazocine by scintillation counting method relative to control. It is filed as cell membranes.
For series [25], the target named is Delta-type opioid receptor (Rattus norvegicus) (UniProt P33533). The series can be described thus: Displacement of [3H]DPDPE from delta opioid receptor in rat membrane at 1 uM after 120 mins by scintillation counting analysis relative to control. It is filed as cell membranes.
The target in series [26] is Sigma intracellular receptor 2 (Homo sapiens, UniProt Q5BJF2). In words: Displacement of [3H]-di-o-tolylguanidine from sigma2 receptor in human RT4 cell membranes at 1 uM after 120 mins in the presence of sigma1 receptor ligand (+)-pentazocine by scintillation counting method relative to control.
Series [27] is filed under the species Cavia porcellus. The series can be described thus: Selectivity ratio of Ki for displacement of [3H](+)-pentazocine from sigma 1 receptor in guinea pig brain cortex membranes to Ki for displacement of [3H]DAMGO from mu opioid receptor in guinea pig brain membranes. It is filed as cell membranes.
Series [28] deals with Mu-type opioid receptor (Cavia porcellus) (UniProt P97266). The series can be described thus: Displacement of [3H]DAMGO from mu opioid receptor in guinea pig brain membranes at 1 uM after 120 mins by scintillation counting analysis relative to control. It is filed as cell membranes.

Calls of active or inactive are those of the source. The rule behind the calls is not given here.

Sequence of Mu-type opioid receptor (P97266 whole entry): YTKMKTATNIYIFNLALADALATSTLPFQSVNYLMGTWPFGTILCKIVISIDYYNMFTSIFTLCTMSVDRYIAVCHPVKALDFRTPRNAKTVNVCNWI
Sequence of Sigma non-opioid intracellular receptor 1 (Cavia porcellus, UniProt Q60492) (Q60492 whole entry): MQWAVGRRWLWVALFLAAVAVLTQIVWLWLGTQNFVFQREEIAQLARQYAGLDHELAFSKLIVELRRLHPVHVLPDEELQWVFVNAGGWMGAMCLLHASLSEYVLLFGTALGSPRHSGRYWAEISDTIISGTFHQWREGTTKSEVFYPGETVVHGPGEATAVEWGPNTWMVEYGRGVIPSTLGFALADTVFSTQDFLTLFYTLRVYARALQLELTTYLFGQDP
Sequence of Kappa-type opioid receptor (P41144 whole entry): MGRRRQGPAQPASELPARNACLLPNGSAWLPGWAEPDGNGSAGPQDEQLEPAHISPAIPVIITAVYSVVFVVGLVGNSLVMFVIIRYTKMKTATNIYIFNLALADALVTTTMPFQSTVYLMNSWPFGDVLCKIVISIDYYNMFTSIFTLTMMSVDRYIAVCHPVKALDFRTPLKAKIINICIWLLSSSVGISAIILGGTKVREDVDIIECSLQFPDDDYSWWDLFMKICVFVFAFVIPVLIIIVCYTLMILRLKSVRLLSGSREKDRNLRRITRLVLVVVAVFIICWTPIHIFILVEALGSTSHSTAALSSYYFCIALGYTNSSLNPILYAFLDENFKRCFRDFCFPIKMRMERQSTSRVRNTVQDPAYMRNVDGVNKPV
Sequence of Delta-type opioid receptor (P33533 whole entry): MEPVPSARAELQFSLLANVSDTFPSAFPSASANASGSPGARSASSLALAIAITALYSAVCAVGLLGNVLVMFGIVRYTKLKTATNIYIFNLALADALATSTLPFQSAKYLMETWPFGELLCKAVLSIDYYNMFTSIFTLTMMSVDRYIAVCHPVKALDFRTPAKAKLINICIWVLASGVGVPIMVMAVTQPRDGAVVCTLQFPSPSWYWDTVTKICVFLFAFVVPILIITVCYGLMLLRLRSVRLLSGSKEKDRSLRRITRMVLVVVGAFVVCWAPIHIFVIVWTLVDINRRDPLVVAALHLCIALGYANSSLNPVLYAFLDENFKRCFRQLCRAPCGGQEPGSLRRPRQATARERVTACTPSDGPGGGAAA
Sequence of Sodium-dependent dopamine transporter (Homo sapiens) (Q01959 whole entry): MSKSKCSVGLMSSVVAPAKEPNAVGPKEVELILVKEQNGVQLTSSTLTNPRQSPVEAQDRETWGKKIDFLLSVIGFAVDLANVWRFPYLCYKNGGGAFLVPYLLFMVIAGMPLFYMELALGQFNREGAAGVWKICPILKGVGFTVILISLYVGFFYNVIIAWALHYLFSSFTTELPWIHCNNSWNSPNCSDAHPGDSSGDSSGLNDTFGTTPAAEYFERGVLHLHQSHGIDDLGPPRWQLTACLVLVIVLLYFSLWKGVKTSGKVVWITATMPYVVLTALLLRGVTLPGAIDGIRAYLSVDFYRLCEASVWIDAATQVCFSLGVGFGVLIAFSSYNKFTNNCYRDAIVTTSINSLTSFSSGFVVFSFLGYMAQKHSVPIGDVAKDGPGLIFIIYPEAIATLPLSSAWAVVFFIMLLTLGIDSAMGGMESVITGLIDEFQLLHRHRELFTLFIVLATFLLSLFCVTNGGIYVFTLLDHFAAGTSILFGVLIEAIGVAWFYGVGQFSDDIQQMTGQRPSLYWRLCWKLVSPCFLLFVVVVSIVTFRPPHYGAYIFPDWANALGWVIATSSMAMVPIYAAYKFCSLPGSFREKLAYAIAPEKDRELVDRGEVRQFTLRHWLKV
Sequence of Cytochrome P450 2C19 (P33261 whole entry): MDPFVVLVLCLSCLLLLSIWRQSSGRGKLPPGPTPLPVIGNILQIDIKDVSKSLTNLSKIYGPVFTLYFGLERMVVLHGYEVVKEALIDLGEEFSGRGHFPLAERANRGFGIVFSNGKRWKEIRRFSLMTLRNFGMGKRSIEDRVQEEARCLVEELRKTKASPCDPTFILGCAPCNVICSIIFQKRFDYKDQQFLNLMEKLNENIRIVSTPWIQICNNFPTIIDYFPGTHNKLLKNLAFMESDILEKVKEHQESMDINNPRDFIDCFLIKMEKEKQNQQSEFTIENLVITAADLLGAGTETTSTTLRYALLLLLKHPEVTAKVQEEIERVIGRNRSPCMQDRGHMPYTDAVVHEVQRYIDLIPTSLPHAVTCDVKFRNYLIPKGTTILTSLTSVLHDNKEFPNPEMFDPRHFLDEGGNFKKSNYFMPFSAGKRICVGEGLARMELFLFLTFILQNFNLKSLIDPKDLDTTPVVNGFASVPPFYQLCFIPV
Sequence of Sigma non-opioid intracellular receptor 1 (Homo sapiens, UniProt Q99720) (Q99720 whole entry): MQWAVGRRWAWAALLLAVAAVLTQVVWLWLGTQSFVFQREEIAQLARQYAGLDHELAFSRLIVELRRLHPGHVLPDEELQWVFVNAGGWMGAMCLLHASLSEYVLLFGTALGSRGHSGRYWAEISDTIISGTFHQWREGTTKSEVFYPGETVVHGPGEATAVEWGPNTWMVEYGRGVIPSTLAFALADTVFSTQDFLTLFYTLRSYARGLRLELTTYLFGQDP
Sequence of 5-hydroxytryptamine receptor 2B (Homo sapiens) (P41595 whole entry): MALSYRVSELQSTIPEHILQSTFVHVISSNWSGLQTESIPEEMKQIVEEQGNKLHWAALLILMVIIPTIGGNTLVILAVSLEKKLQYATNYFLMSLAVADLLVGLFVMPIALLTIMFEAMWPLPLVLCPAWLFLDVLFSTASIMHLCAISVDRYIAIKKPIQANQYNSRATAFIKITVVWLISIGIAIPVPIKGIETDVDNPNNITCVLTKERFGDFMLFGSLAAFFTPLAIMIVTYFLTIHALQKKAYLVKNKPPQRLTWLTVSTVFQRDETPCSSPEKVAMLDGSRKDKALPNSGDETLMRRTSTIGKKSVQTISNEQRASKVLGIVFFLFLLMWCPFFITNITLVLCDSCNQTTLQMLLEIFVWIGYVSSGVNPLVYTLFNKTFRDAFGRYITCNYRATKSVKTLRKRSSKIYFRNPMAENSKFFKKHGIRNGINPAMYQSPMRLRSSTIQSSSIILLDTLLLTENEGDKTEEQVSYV
Sequence of Cytochrome P450 3A4 (P08684 whole entry): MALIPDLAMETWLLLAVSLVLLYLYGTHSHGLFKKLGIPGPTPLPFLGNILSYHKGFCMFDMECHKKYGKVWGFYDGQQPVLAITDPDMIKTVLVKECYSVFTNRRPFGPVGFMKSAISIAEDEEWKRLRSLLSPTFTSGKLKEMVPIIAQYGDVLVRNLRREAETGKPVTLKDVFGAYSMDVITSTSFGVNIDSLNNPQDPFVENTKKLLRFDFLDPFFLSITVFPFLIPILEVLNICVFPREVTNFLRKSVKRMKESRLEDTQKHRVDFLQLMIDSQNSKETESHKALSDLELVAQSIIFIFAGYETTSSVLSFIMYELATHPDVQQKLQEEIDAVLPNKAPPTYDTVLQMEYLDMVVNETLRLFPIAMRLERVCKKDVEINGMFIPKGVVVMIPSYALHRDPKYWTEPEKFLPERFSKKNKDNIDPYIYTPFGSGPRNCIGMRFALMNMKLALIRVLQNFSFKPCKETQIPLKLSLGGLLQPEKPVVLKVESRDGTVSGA
Sequence of Sodium-dependent noradrenaline transporter (Homo sapiens) (P23975 whole entry): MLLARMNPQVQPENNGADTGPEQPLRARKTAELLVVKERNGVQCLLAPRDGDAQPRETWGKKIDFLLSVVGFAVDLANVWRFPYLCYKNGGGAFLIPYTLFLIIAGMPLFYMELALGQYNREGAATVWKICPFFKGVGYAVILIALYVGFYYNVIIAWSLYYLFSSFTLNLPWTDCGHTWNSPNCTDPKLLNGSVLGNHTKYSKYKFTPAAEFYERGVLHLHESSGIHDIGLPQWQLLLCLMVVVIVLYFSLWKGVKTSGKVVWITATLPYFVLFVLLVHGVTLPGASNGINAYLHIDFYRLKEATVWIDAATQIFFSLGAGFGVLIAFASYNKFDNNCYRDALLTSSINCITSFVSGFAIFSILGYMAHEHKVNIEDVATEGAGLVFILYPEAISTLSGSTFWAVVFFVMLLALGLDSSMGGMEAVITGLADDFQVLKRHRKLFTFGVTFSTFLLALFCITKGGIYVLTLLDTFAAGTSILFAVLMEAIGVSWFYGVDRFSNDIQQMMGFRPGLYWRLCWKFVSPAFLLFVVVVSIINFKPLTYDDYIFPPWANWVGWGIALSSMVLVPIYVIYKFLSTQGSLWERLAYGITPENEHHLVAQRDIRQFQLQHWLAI
Sequence of CYP2D6 (P10635 whole entry): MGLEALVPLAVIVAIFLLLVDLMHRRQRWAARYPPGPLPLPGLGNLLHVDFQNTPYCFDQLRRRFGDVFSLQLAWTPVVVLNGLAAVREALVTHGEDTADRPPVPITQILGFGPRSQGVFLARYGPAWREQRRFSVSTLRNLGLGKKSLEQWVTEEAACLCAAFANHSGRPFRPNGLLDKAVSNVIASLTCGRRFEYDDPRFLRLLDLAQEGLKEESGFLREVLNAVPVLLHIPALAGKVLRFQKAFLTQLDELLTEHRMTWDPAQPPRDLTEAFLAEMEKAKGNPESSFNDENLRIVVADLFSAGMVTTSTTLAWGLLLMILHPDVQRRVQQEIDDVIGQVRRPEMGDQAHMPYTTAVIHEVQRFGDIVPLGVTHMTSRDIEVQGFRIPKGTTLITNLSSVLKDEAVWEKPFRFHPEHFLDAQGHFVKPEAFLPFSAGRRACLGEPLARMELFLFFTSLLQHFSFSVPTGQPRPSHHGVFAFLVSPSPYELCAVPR
Sequence of Mu-type opioid receptor (Cavia porcellus) (P97266 whole entry): as the sequence (P97266 whole entry) above
Sequence of Sigma intracellular receptor 2 (Homo sapiens, UniProt Q5BJF2) (Q5BJF2 whole entry): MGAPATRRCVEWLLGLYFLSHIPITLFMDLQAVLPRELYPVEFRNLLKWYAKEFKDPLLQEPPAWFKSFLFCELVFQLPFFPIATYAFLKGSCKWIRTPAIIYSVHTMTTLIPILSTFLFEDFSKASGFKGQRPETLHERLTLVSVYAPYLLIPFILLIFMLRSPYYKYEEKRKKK
Sequence of Delta-type opioid receptor (Rattus norvegicus) (P33533 whole entry): as the sequence (P33533 whole entry) above

Regarding `COC1Cc2ccccc2[C@]2(CC[C@@H](N(C)CC3CCCCC3)CC2)O1` (stereo partly specified), the result in series [1], in [2], in [11], in series [12], in series [16] and in [17] was inactive. For the same molecule, the outcome in series [21] and in series [23] was inactive. In series [3], the inhibition at 1 µM was more than 90%. The remaining at 1 h, 1 µM in series [4] was more than 50%. The Activity entry in series [5] and in [18] was “Non-Toxic” in each case. For the same molecule, the Ki in [6] was 6.9 nM; in series [7], 980 nM; in series [8] it was 299 nM; in series [10] it was 154 nM; in [15] it was 3.1 nM; in series [22] it was 150 nM. Further, the “inhibition (INH)” value in [9], in series [14], in [19] and in series [20] was “Not Active” each time. Further, the Ratio Ki in series [13] was found to be 50.

With `COC1O[C@]2(CC[C@H](NCc3ccccc3)CC2)c2ccccc21` (stereo partly specified), the Ki stood at 413 nM in [7], 115 nM in series [8] and 262 nM in [15]. The inhibition in [24] came to 25%; in series [25], 30%. In addition, the Ratio Ki in [13] is 5 to 10.

Turning to `COC1Cc2ccccc2[C@]2(CC[C@@H](NCc3ccccc3)CC2)O1` (stereo partly specified), the inhibition in series [26] is 40%. Moreover, the Ki in series [7] came to 204 nM; in series [8], 38 nM; in series [10], 2000 nM; in series [22], 49 nM. In addition, the Ratio Ki in series [27] is 14; in series [13], 5 to 10. Besides, the outcome in [21] was inactive.

As for `COC1Cc2ccccc2[C@]2(CC[C@H](N(C)Cc3ccccc3)CC2)O1` (stereo partly specified), the result in series [1], in [2], in series [11], in series [12], in [16] and in [17] was inactive. Moreover, the outcome in series [21] and in series [23] was inactive. Moreover, the inhibition at 1 µM in series [3] is more than 90%. Moreover, in series [4], the remaining at 1 h, 1 µM was more than 50%. The Activity result in series [5] and in [18] was “Non-Toxic” throughout. For the same molecule, the inhibitory constant (Ki) worked out at 39 nM in series [6], 2300 nM in series [7], 329 nM in [10] and 1300 nM in series [22]. The “inhibition (INH)” value in series [9], in [14], in [19] and in series [20] was “Not Active” each time. This molecule also displayed an inhibition in [28] of 12%. Besides, in [13], the Ratio Ki fell in the range of 5 to 10.

For the molecule `c1ccc(CN[C@H]2CC[C@@]3(CC2)OCCc2ccccc23)cc1`, the Ki in series [7] worked out at 85 nM; in series [8], 31 nM; in series [15], 256 nM; in [22], 14 nM. Besides, the figures for the Ratio Ki in series [27] and in series [13] were 8.5 and 5 to 10, respectively. The inhibition in series [24] turned out to be 13%.
